Laboratory results published in patent US20140303242A1, “Sparstolonin B Based Pharmaceutical Agent to Treat Pathological Angiogensis” (University of South Carolina, priority 2013, published 2014).

Columns and labels:
[1] = tested on: HUVECs; assay: Cytotoxicity on HUVECs; format: cell-based, human; settings: concentrations up to 100 μM
[2] = tested on: HCAECs; assay: Matrigel tube formation assay (HCAECs); format: cell-based, human; settings: between 1 and 100 μM, 4 h
Description: (§1) To initially determine if SsnB inhibited pro-angiogenic cell functions, a tube formation assay with Matrigel was performed. Growth factor reduced Matrigel (BD Biosciences, Bedford, Mass.) was added to the wells of a 96 well polystyrene culture plate and incubated at 37° C. for 30 minutes. Cells (HUVECs, HCAECs, or HMVECs at passage 2 to 4) were added to each well to reach a final number of 20,000 cells per well. SsnB was added to the wells at a concentration of 1, 10, or 100 μM. Endothelial cell medium with DMSO (0.1%) was used as a vehicle control. Each group contained 4 replicates. The plates were placed in an incubator for 4 h. During the incubation, the endothelial cells formed elongated structures called cords, also known as tubes. After 4 h, neutral buffered formalin was added to fix the cells. Pictures of three non-overlapping fields were taken from each well. The lengths of single cell endothelial cords were measured with Image-Pro Plus (Media Cybernetics, Silver Spring, Md.), and the sum of tube lengths for each well was determined. The average total length and standard deviation for each group were determined, and the appropriate statistical tests (ANOVA and Newman-Keuls) were completed. The tube formation assay was replicated three times for both HUVECs and HCAECs. The assay was also repeated with cardiac HMVECs.

[3] = tested on: HUVECs; assay: Microarray gene expression analysis (HUVECs); format: cell-based, human
Description: Confluent plates (100×20 mm polystyrene, tissue culture-treated petri plates coated with 0.1% gelatin, 75% confluent) of HUVECs and HCAECs (four plates for HUVECs, n=2, and six plates for HCAECs, n=3) were chosen for the microarray experiments. Half of the plates received complete growth medium (10% fetal bovine serum with endothelial mitogen) containing vehicle control (0.1% DMSO), and the remaining plates received complete growth medium containing 100 μM SsnB. The plates were incubated for 24 h to allow SsnB to have an effect on cellular gene expression. Following incubation, RNA isolation was completed with the RNeasy Mini kit from Qiagen. The cells were lysed, and RNA was isolated by using the RNeasy spin columns and following the protocol provided by Qiagen. Purified RNA was sent to the Medical University of South Carolina Proteogenomics Facility for microarray analysis. The GeneChip Human Genome U133 Plus 2.0 Array was utilized to track changes in gene expression due to SsnB treatment. Complete data was uploaded to the NCBI Gene Expression Omnibus database (accession number GSE44598).
(§2) Microarray data analysis, including data normalization (robust multi-array average), identification of differentially expressed genes (comparative analyses with dChip software), and heat map construction, was carried out to determine how SsnB affects gene expression and affected pathways (n=2 for HUVECs and n=3 for HCAECs). After a careful analysis of the microarray data, several key genes were chosen for qRT-PCR to verify the gene expression results. The genes were chosen based on the following criteria: fold change ≧2, p<0.05, unpaired t-test with a false discovery rate approximating 0%, appearing in both data sets (HUVECs and HCAECs), and gene function relating to cell proliferation and/or angiogenesis. For qRT-PCR, the expression levels were normalized to the housekeeping gene GAPDH, and RNA levels were compared between groups with the ΔΔCt method.

[4] = tested on: monocytic THP-1 cells; assay: Cytotoxicity on monocytic THP-1 cells; format: cell-based; settings: concentrations up to 100 μM
[5] = tested on: HUVECs; assay: Matrigel tube formation assay (HUVECs); format: cell-based, human; settings: concentrations between 1 and 100 μM, 4 h, p<0.05
Description: as §1

[6] = tested on: HUVECs; assay: Real time RT-PCR gene expression (HUVECs); format: cell-based, human; settings: 24 h
Description: After a careful analysis of the microarray data, key genes (CDC6, CCNE2, KITLG, ALDH3A1, CCNB1, CDC2, HMMR, DIAPH3, ANLN, and CDKN3) were chosen for quantitative real-time PCR (qRT-PCR) to verify the gene expression results. HCAECs and HUVECs were exposed to SsnB or vehicle control for 24 h (as previously described in the microarray section). For RT-PCR, RNA was isolated from the cells with the RNeasy Mini kit as described previously. After forward and reverse primer kits (Qiagen, Valencia, Calif.) were selected, the RNA was amplified. The one-step RT-PCR reactions were completed on the BioRad iCycler thermal cycler system in the Instrumentation Resource Facility at the USC School of Medicine. The expression levels were normalized, and RNA levels were quantified.
as §2

[7] = HUVECs, 100 μM SsnB vs vehicle control, 24 h
[8] = microarray data, cell type not specified
[9] = SsnB vs vehicle control, normalized to GAPDH

O=c1occ2c3c(ccc(O)c13)Oc1ccc(O)cc1-2 [SsnB, Sparstolonin B]
cytotoxic effects [1]: does not exhibit cytotoxic effects
HCAEC tube formation on Matrigel [2]: dose-dependent inhibition
ALDH3A1 Microarray Fold change value [3, 7]: 7.7
ANLN Microarray Fold change value [3, 7]: 0.09
CCNB1 Microarray Fold change value [3, 7]: 0.19
CCNE2 Microarray Fold change value [3, 7]: 0.24
CDC2 Microarray Fold change value [3, 7]: 0.08
CDC6 Microarray Fold change value [3, 7]: 0.23
CDKN3 Microarray Fold change value [3, 7]: 0.19
DIAPH3 Microarray Fold change value [3, 7]: 0.34
HMMR Microarray Fold change value [3, 7]: 0.11
KITLG Microarray Fold change value [3, 7]: 6.2
number of differentially expressed genes in response to SsnB exposure ([3]; HUVECs, 100 μM, 24 h, fold change ≧2, p<0.05): 916 genes
KIF18A expression in microarray data [3, 8]: downregulated
TACC3 expression in microarray data [3, 8]: downregulated
aurora kinases (AURKA and AURKB) expression in microarray data [3, 8]: downregulated
cytotoxic effects [4]: does not exhibit cytotoxic effects
HUVEC tube formation [5]: dose-dependent inhibition
ALDH3A1 expression (qRT-PCR) [6]: 1280 % of controls
KITLG expression (qRT-PCR) [6]: 400 % of controls
ALDH3A1 PCR 2^ΔΔCt value [6, 9]: 12.8
ANLN PCR 2^ΔΔCt value [6, 9]: 0.20
CCNB1 PCR 2^ΔΔCt value [6, 9]: 0.40
CCNE2 PCR 2^ΔΔCt value [6, 9]: 0.64
CDC2 PCR 2^ΔΔCt value [6, 9]: 0.14
CDC6 PCR 2^ΔΔCt value [6, 9]: 0.35
CDKN3 PCR 2^ΔΔCt value [6, 9]: 0.18
DIAPH3 PCR 2^ΔΔCt value [6, 9]: 0.19
HMMR PCR 2^ΔΔCt value [6, 9]: 0.24
KITLG PCR 2^ΔΔCt value [6, 9]: 4.0
